Reference: patent US20230365592A1 (Agios Pharmaceuticals, Inc., priority 2022, published 2023)

biological target: T1, human PAH with the R408W mutation (Homo sapiens, UniProt P00439, R408W); test: Cell Based Phenylalanine Flux Assay; details: A375 cells expressing human R408W PAH; 24 hrs compound incubation; 13C-Tyrosine by LC-MS; average where tested multiple times; read-out: AC50;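 further: after compound treatment, cells received sepiapterin plus isotope-labelled Phenylalanine for 4 hours, then labelled Tyrosine in the medium was quantified, 10-point 2-fold dilution series run in duplicate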
T1 construct: expressed in transfected cells
T1 sequence (P00439 1-452 R408W): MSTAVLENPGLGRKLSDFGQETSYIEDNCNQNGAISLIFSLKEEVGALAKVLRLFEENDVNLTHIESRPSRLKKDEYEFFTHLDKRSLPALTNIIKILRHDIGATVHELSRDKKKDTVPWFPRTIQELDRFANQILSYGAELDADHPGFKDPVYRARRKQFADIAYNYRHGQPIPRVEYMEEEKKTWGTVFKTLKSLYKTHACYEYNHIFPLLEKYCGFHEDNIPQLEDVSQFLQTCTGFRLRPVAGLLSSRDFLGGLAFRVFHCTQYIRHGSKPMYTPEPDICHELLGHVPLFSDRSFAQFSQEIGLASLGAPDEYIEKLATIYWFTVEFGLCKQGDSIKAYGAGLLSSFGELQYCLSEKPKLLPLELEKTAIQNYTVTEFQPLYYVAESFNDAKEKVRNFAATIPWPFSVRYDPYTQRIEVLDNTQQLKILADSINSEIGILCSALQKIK

| Structure (SMILES) | AC50 [nM] |
| --- | --- |
| CC(C)(O)c1nc(Br)c(C(=O)N2CCc3[nH]cnc3[C@@H]2c2cc3c(F)cccn3n2)o1 [Example 747, (R)-(4-bromo-2-(2-hydroxypropan-2-yl)oxazol-5-yl)(4-(4-fluoropyrazolo[1,5-a]pyridin-2-yl)-6,7-dihydro-1H-imidazo[4,5-c]pyridin-5(4H)-yl)methanone] | > 5000 |
| Cc1cccn2nc([C@@H]3c4nc[nH]c4CCN3C(=O)c3nnc(-c4cnn(C)c4)o3)cc12 [Example 748, (S)-(5-(1-methyl-1H-pyrazol-4-yl)-1,3,4-oxadiazol-2-yl)(4-(4-methylpyrazolo[1,5-a]pyridin-2-yl)-6,7-dihydro-1H-imidazo[4,5-c]pyridin-5(4H)-yl)methanone] | < 500 |
| Cc1cccn2nc([C@H]3c4nc[nH]c4CCN3C(=O)c3nnc(-c4cnn(C)c4)o3)cc12 [Example 749, (R)-(5-(1-methyl-1H-pyrazol-4-yl)-1,3,4-oxadiazol-2-yl)(4-(4-methylpyrazolo[1,5-a]pyridin-2-yl)-6,7-dihydro-1H-imidazo[4,5-c]pyridin-5(4H)-yl)methanone] | > 5000 |
| Cc1nc([C@H](C)O)oc1C(=O)N1CCc2[nH]cnc2[C@H]1c1cc2c(C)cccn2n1 [Example 750, (2-((S)-1-hydroxyethyl)-4-methyloxazol-5-yl)((S)-4-(4-methylpyrazolo[1,5-a]pyridin-2-yl)-6,7-dihydro-1H-imidazo[4,5-c]pyridin-5(4H)-yl)methanone] | < 500 |
| Cc1nc([C@@H](C)O)oc1C(=O)N1CCc2[nH]cnc2[C@H]1c1cc2c(C)cccn2n1 [Example 752, (2-((R)-1-hydroxyethyl)-4-methyloxazol-5-yl)((S)-4-(4-methylpyrazolo[1,5-a]pyridin-2-yl)-6,7-dihydro-1H-imidazo[4,5-c]pyridin-5(4H)-yl)methanone] | < 500 |
| Cc1nc([C@@H](C)O)oc1C(=O)N1CCc2[nH]cnc2[C@@H]1c1cc2c(C)cccn2n1 [Example 753, (2-((R)-1-hydroxyethyl)-4-methyloxazol-5-yl)((R)-4-(4-methylpyrazolo[1,5-a]pyridin-2-yl)-6,7-dihydro-1H-imidazo[4,5-c]pyridin-5(4H)-yl)methanone] | 1000 to 5000 |
| Cc1nc(C(C)(C)O)oc1C(=O)N1CCc2[nH]cnc2[C@H]1c1cc2c(C)cccn2n1 [Example 754, (S)-(2-(2-hydroxypropan-2-yl)-4-methyloxazol-5-yl)(4-(4-methylpyrazolo[1,5-a]pyridin-2-yl)-6,7-dihydro-1H-imidazo[4,5-c]pyridin-5(4H)-yl)methanone] | < 500 |
| Cn1nc(Cl)nc1C(=O)N1CCc2[nH]cnc2[C@H]1c1cc2c(F)cccn2n1 [Example 762, (S)-(3-chloro-1-methyl-1H-1,2,4-triazol-5-yl)(4-(4-fluoropyrazolo[1,5-a]pyridin-2-yl)-6,7-dihydro-1H-imidazo[4,5-c]pyridin-5(4H)-yl)methanone] | < 500 |
| Cn1nc(Cl)nc1C(=O)N1CCc2[nH]cnc2[C@@H]1c1cc2c(F)cccn2n1 [Example 763, (R)-(3-chloro-1-methyl-1H-1,2,4-triazol-5-yl)(4-(4-fluoropyrazolo[1,5-a]pyridin-2-yl)-6,7-dihydro-1H-imidazo[4,5-c]pyridin-5(4H)-yl)methanone] | 1000 to 5000 |
| Cn1nc(C(F)F)nc1C(=O)N1CCc2[nH]cnc2[C@H]1c1cc2c(F)cccn2n1 [Example 764, (S)-(3-(difluoromethyl)-1-methyl-1H-1,2,4-triazol-5-yl)(4-(4-fluoropyrazolo[1,5-a]pyridin-2-yl)-6,7-dihydro-1H-imidazo[4,5-c]pyridin-5(4H)-yl)methanone] | 500 to 1000 |
| Cn1nc(C(F)F)nc1C(=O)N1CCc2[nH]cnc2[C@@H]1c1cc2c(F)cccn2n1 [Example 765, (R)-(3-(difluoromethyl)-1-methyl-1H-1,2,4-triazol-5-yl)(4-(4-fluoropyrazolo[1,5-a]pyridin-2-yl)-6,7-dihydro-1H-imidazo[4,5-c]pyridin-5(4H)-yl)methanone] | 1000 to 5000 |
| O=C(c1cnco1)N1CCc2[nH]cnc2[C@H]1c1cc2c(Cl)cccn2n1 [Example 766, (S)-(4-(4-chloropyrazolo[1,5-a]pyridin-2-yl)-6,7-dihydro-1H-imidazo[4,5-c]pyridin-5(4H)-yl)(oxazol-5-yl)methanone] | < 500 |
| O=C(c1cnco1)N1CCc2[nH]cnc2[C@@H]1c1cc2c(Cl)cccn2n1 [Example 767, (R)-(4-(4-chloropyrazolo[1,5-a]pyridin-2-yl)-6,7-dihydro-1H-imidazo[4,5-c]pyridin-5(4H)-yl)(oxazol-5-yl)methanone] | > 5000 |
| Cc1cccn2nc([C@@H]3c4nc[nH]c4CCN3C(=O)c3cnco3)cc12 [Example 768, (S)-(4-(4-methylpyrazolo[1,5-a]pyridin-2-yl)-6,7-dihydro-1H-imidazo[4,5-c]pyridin-5(4H)-yl)(oxazol-5-yl)methanone] | < 500 |

Second part, the compound after the results:

| AC50 [nM] | Structure (SMILES) |
| --- | --- |
| < 500 | CC(C)(O)c1nc(Cl)c(C(=O)N2CCc3[nH]cnc3[C@H]2c2cc3c(F)cccn3n2)o1 [Example 756, (S)-(4-chloro-2-(2-hydroxypropan-2-yl)oxazol-5-yl)(4-(4-fluoropyrazolo[1,5-a]pyridin-2-yl)-6,7-dihydro-1H-imidazo[4,5-c]pyridin-5(4H)-yl)methanone] |
| 1000 to 5000 | CC(C)(O)c1nc(Cl)c(C(=O)N2CCc3[nH]cnc3[C@@H]2c2cc3c(F)cccn3n2)o1 [Example 757, (R)-(4-chloro-2-(2-hydroxypropan-2-yl)oxazol-5-yl)(4-(4-fluoropyrazolo[1,5-a]pyridin-2-yl)-6,7-dihydro-1H-imidazo[4,5-c]pyridin-5(4H)-yl)methanone] |
| < 500 | O=C(c1ocnc1C(F)F)N1CCc2[nH]cnc2[C@H]1c1cc2c(F)cccn2n1 [Example 758, (S)-(4-(difluoromethyl)oxazol-5-yl)(4-(4-fluoropyrazolo[1,5-a]pyridin-2-yl)-6,7-dihydro-1H-imidazo[4,5-c]pyridin-5(4H)-yl)methanone] |
| 1000 to 5000 | O=C(c1ocnc1C(F)F)N1CCc2[nH]cnc2[C@@H]1c1cc2c(F)cccn2n1 [Example 759, (R)-(4-(difluoromethyl)oxazol-5-yl)(4-(4-fluoropyrazolo[1,5-a]pyridin-2-yl)-6,7-dihydro-1H-imidazo[4,5-c]pyridin-5(4H)-yl)methanone] |
| 1000 to 5000 | O=C(c1cnco1)N1CCc2[nH]cnc2[C@H]1c1cc2c(F)cccn2n1 [Example 760, (S)-(4-(4-fluoropyrazolo[1,5-a]pyridin-2-yl)-6,7-dihydro-1H-imidazo[4,5-c]pyridin-5(4H)-yl)(oxazol-5-yl)methanone] |
| 1000 to 5000 | O=C(c1cnco1)N1CCc2[nH]cnc2[C@@H]1c1cc2c(F)cccn2n1 [Example 761, (R)-(4-(4-fluoropyrazolo[1,5-a]pyridin-2-yl)-6,7-dihydro-1H-imidazo[4,5-c]pyridin-5(4H)-yl)(oxazol-5-yl)methanone] |
| < 500 | Cc1ncoc1C(=O)N1CCc2[nH]cnc2[C@H]1c1cc2c(C)cccn2n1 [Example 770, (S)-(4-methyloxazol-5-yl)(4-(4-methylpyrazolo[1,5-a]pyridin-2-yl)-6,7-dihydro-1H-imidazo[4,5-c]pyridin-5(4H)-yl)methanone] |
| 1000 to 5000 | Cc1ncoc1C(=O)N1CCc2[nH]cnc2[C@@H]1c1cc2c(C)cccn2n1 [Example 771, (R)-(4-methyloxazol-5-yl)(4-(4-methylpyrazolo[1,5-a]pyridin-2-yl)-6,7-dihydro-1H-imidazo[4,5-c]pyridin-5(4H)-yl)methanone] |
| < 500 | O=C(c1ocnc1C(F)(F)F)N1CCc2[nH]cnc2[C@H]1c1cc2c(F)cccn2n1 [Example 772, (S)-(4-(4-fluoropyrazolo[1,5-a]pyridin-2-yl)-6,7-dihydro-1H-imidazo[4,5-c]pyridin-5(4H)-yl)(4-(trifluoromethyl)oxazol-5-yl)methanone] |
| 500 to 1000 | O=C(c1ocnc1C(F)(F)F)N1CCc2[nH]cnc2[C@@H]1c1cc2c(F)cccn2n1 [Example 773, (R)-(4-(4-fluoropyrazolo[1,5-a]pyridin-2-yl)-6,7-dihydro-1H-imidazo[4,5-c]pyridin-5(4H)-yl)(4-(trifluoromethyl)oxazol-5-yl)methanone] |
| < 500 | Cc1ncoc1C(=O)N1CCc2[nH]cnc2[C@H]1c1cc2c(F)cccn2n1 [Example 774, (S)-(4-(4-fluoropyrazolo[1,5-a]pyridin-2-yl)-6,7-dihydro-1H-imidazo[4,5-c]pyridin-5(4H)-yl)(4-methyloxazol-5-yl)methanone] |
| > 5000 | Cc1ncoc1C(=O)N1CCc2[nH]cnc2[C@@H]1c1cc2c(F)cccn2n1 [Example 775, (R)-(4-(4-fluoropyrazolo[1,5-a]pyridin-2-yl)-6,7-dihydro-1H-imidazo[4,5-c]pyridin-5(4H)-yl)(4-methyloxazol-5-yl)methanone] |
| < 500 | O=C(c1ccnn1C(F)F)N1CCc2[nH]cnc2[C@H]1c1cc2c(F)cccn2n1 [Example 776, (S)-(1-(difluoromethyl)-1H-pyrazol-5-yl)(4-(4-fluoropyrazolo[1,5-a]pyridin-2-yl)-6,7-dihydro-1H-imidazo[4,5-c]pyridin-5(4H)-yl)methanone] |
| > 5000 | O=C(c1ccnn1C(F)F)N1CCc2[nH]cnc2[C@@H]1c1cc2c(F)cccn2n1 [Example 777, (R)-(1-(difluoromethyl)-1H-pyrazol-5-yl)(4-(4-fluoropyrazolo[1,5-a]pyridin-2-yl)-6,7-dihydro-1H-imidazo[4,5-c]pyridin-5(4H)-yl)methanone] |
